From US11440923B2, “Substituted macrocyclic indole derivatives” (Bayer Aktiengesellschaft, priority 2017, dated 2022) come the findings set out here.

Where a name gives a salt, the structure may show the parent alone. Read-outs that look alike come from different tables or passages of the source.

What all share (format): cell-based
For data set [1], the system named is SUDHL10 cells. Description: Induction of cytotoxicity in SUDHL10 cells (Assay 6). As to conditions: 5 h, CellTiter-Glo; read-out: Cytotox SUDHL10 IC50 (median). How it is done: (§1) Assay 6 Induction of Cytotoxicity Upon Treatment of Cells with Selected Compounds
(§2) In principle, compounds that induce apoptosis will concomitantly induce cell cytotoxicity. Therefore, cytotoxicity assays were run in parallel in SUDHL5 and SUDHL10 cells.
(§3) As a control, medium without cells was also added to the plate. Cells were incubated in a humidified incubator at 37° C. overnight. […] Rim wells were excluded. The cells were incubated for 5 h hours in a humidified incubator at 37° C. After this incubation, 30 μL of CellTiter-Glo® Luminescent Cell Viability reagent (Promega, G7573) was added to each well using the Multidrop Combi Reagent Dispenser, followed by 15 min incubation on a shaker at room temperature. Finally, luminescence was read at 0.1 ms, with a gain of 3000 using the PHERAstar FS microplate reader (BMG Labtech).

Data set [2] has as its system SUDHL5 cells. Description: Induction of cytotoxicity in SUDHL5 cells (Assay 6). As to conditions: 5 h, CellTiter-Glo; read-out: Cytotox SUDHL5 IC50 (median). How it is done:
as §1, §2, §3

The subject of data set [3] is SUDHL10 cells. In words: Induction of caspase-3/7 activity in SUDHL10 cells (Assay 4). How it is done:
(§4) Induction of Caspase-3/7 Activity Upon Treatment of Cells with Selected Compounds
(§5) The BH3-domain of MCL-1 sequesters pro-apoptotic proteins, thereby inhibiting apoptosis. In contrast, MCL-1 inhibitors are expected to antagonize this effect leading to an increase in apoptosis, which can be determined by measuring the activity of caspase-3/7.
(§6) The activity of caspase-3/7 was determined in DLBCL (Diffuse large B-cell lymphoma) cell lines (SUDHL5 and SUDHL10) upon treatment with different compounds, using the Caspase-Glo® 3/7 reagent from Promega (G8092).
(§7) As a control, medium without cells was also added to the plate. Cells were incubated in a humidified incubator at 37° C. overnight.
(§8) Rim wells were excluded. The cells were incubated for 3 h hours in a humidified incubator at 37° C. After this incubation, 30 μL of Caspase-Glo® 3/7 reagent (Promega G8092) was added to each well using the Multidrop Combi Reagent Dispenser, followed by 1 h incubation at 37° C. Finally, luminescence was read at 0.1 ms, with a gain of 3000 using the PHERAstar FS microplate reader (BMG Labtech).
(§9) For the evaluation of the results, the background measured with “medium-only” was subtracted from all other values. Then, the values were normalized to DMSO-only treated cells (every value was divided by the mean of the DMSO control).

The test system of data set [4] is SUDHL5 cells. Description: Induction of caspase-3/7 activity in SUDHL5 cells (Assay 4). How it is done:
as §4, §5, §6, §7, §8, §9

For the next data set, the system named is HMC-1-8 cells. Description: Antiproliferation assay HMC-1-8 (Assay 7). How it is done:
(§10) Assessment of the Anti-Proliferative Effect of Compounds in Different Cell Lines
(§11) The impact of compounds on the proliferation of different cell lines was assessed using the CellTiter-Glo® Luminescent Cell Viability reagent from Promega (G7573).
(§12) In parallel, cells were plated in a reference (day 0) plate for time zero determination. Cells were incubated in a humidified incubator at 37° C. overnight.
(§13) Rim wells were excluded. The cells were incubated for 72 h hours in a humidified incubator at 37° C. The day 0 plate was measured by adding 30 μL/well of CTG solution (CellTiter-Glo® Luminescent Cell Viability reagent, Promega G7573) to time zero wells in the reference plate followed by a 10 minutes incubation and luminescence reading at 0.1 ms. using the PHERAstar FS microplate reader (BMG Labtech).
(§14) After 72 h incubation, the treated plates were measured in the same way as the day 0 plate mentioned above. The Bella DRC Master Sheet was used to calculate IC50s, with CI=day 0 values and C0=DMSO control values.

Data set [5] deals with SUDHL5 cells. In words: Antiproliferation assay SUDHL5 (Assay 7). The settings on record: 72 h, CellTiter-Glo; read-out: Antiproli SUDHL5 IC50 (median). How it is done:
as §10, §11, §12, §13, §14
(Cellular ATP, detected with luciferase, serves as a proxy for viable cell number.)

In the next data set the test system is AMO-1 cells. In words: Antiproliferation assay AMO-1 (Assay 7). How it is done: as §10, §11, §12, §13, §14
Setting [6] is: caspase-3/7 induction, 3 h; read-out: Caspase SUDHL10 EC50 (median).
Setting [7] is: caspase-3/7 induction, 3 h; read-out: Caspase SUDHL5 EC50 (median).
Where [8] appears, read: 72 h, CellTiter-Glo; read-out: Antiproli HMC-1-8 IC50 median.
[9] abbreviates: 72 h, CellTiter-Glo; read-out: Antiproli AMO-1 IC50 median.

Consider `CCc1c2c(nn1C)C(CCN1CCOCC1)OCCCCn1c(C(=O)O)c(CCCOc3cccc4cc(F)ccc34)c3ccc(Cl)c-2c31` (single isomer, unassigned; enantiomer 2) [Example 24, (−)-4-chloro-3-ethyl-7-{3-[(6-fluoronaphthalen-1-yl)oxy]propyl}-2-methyl-15-[2-(morpholin-4-yl)ethyl]-2,10,11,12,13,15-hexahydropyrazolo[4′,3′:9,10][1,6]oxazacycloundecino[8,7,6-hi]indole-8-carboxylic acid—N-ethylethanamine (Enantiomer 2)], for which the IC50 (usually the concentration that gives 50% inhibition) was 6600 nM in the data set with SUDHL10 cells [1] and 1700 nM in the data set on SUDHL5 cells [2].
With `CCc1c2c(nn1C)C(CCN1CCOCC1)N(C)CCCCn1c(C(=O)O)c(CCCOc3cccc4cc(F)ccc34)c3ccc(Cl)c-2c31` (racemic) [Example 93, (rac)-4-chloro-3-ethyl-7-{3-[(6-fluoro-1-naphthyl)oxy]propyl}-2,14-dimethyl-(15-rac)-[2-(morpholin-4-yl)ethyl]-10,11,12,13,14,15-hexahydro-2H-pyrazolo[3′,4′:8,9][1,6]diazacycloundecino[10,11,1-hi]indole-8-carboxylic Acid], the 50% effective concentration (EC50) (usually the midpoint of the concentration-response curve) was 23 nM in the data set on SUDHL10 cells [3] (setting [6]) and 20 nM in the data set with SUDHL5 cells [4] (setting [7]). The IC50 is 558 nM in the data set on HMC-1-8 cells (setting [8]), 27 nM with SUDHL5 cells [2], 20 nM with SUDHL5 cells [5] and 58.9 nM in the data set with AMO-1 cells (setting [9]).
In the case of `CCc1c2c(nn1C)C(CCN1CCOCC1)N(C)CCCCn1c(C(=O)O)c(CCCOc3cccc4cc(F)ccc34)c3ccc(Cl)c-2c31` (centres unmarked) [Example 98, 4-chloro-3-ethyl-7-{3-[(6-fluoronaphthalen-1-yl)oxy]propyl}-2,14-dimethyl-15-[2-(morpholin-4-yl)ethyl]-10,11,12,13,14,15-hexahydro-2H-pyrazolo[3′,4′:8,9][1,6]diazacycloundecino[10,11,1-hi]indole-8-carboxylic Acid—N-ethylethanamine Salt], the EC50 in the data set with SUDHL10 cells [3] (setting [6]) turned out to be 1500 nM; in the data set with SUDHL5 cells [4] (setting [7]) it was 1000 nM. Also, the 50% inhibitory concentration (IC50) turned out to be 11500 nM in the data set on HMC-1-8 cells (setting [8]), 1400 nM in the data set on SUDHL5 cells [2], 1200 nM in the data set with SUDHL5 cells [5] and 860 nM in the data set with AMO-1 cells (setting [9]).
As for `CCc1c2c(nn1C)[C@@H](CCN1CCOCC1)OCCCCn1c(C(=O)O)c(CCCOc3cccc4cc(F)ccc34)c3ccc(Cl)c-2c31` [Example 48, (15R)-4-chloro-3-ethyl-7-{3-[(6-fluoronaphthalen-1-yl)oxy]propyl}-2-methyl-15-[2-(morpholin-4-yl)ethyl]-2,10,11,12,13,15-hexahydropyrazolo[4′,3′:9,10][1,6]oxazacycloundecino[8,7,6-hi]indole-8-carboxylic Acid—N-ethylethanamine Salt], the IC50 in the data set with SUDHL10 cells [1] is 200 nM; in the data set on SUDHL5 cells [2], 210 nM.
As for `CCc1c2c(nn1C)C(CCN1CCOCC1)OCC(F)(F)CCn1c(C(=O)O)c(CCCOc3cccc4cc(F)ccc34)c3ccc(Cl)c-2c31` (centres unmarked) [Example 89, 4-chloro-3-ethyl-12,12-difluoro-7-{3-[(6-fluoronaphthalen-1-yl)oxy]propyl}-2-methyl-15-[2-(morpholin-4-yl)ethyl]-2,10,11,12,13,15-hexahydropyrazolo[4′,3′:9,10][1,6]oxazacycloundecino[8,7,6-hi]indole-8-carboxylic Acid], the EC50 in the data set with SUDHL10 cells [3] (setting [6]) and in the data set with SUDHL5 cells [4] (setting [7]) was 30 nM each time. Moreover, the IC50 stood at 765 nM in the data set with HMC-1-8 cells (setting [8]), 36 nM in the data set on SUDHL5 cells [5] and 29.5 nM in the data set on AMO-1 cells (setting [9]).
With `CCc1c2c(nn1C)C(CCN1CCOCC1)N(C)CCCCn1c(C(=O)O)c(CCCOc3cccc4cc(F)ccc34)c3ccc(Cl)c-2c31` (racemic) [Example 96, (rac)-4-chloro-3-ethyl-7-{3-[(6-fluoro-1-naphthyl)oxy]propyl}-2,14-dimethyl-15-(rac)-[2-(morpholin-4-yl)ethyl]-10,11,12,13,14,15-hexahydro-2H-pyrazolo[3′,4′:8,9][1,6]diazacycloundecino[10,11,1-hi]indole-8-carboxylic Acid], the EC50 in the data set on SUDHL10 cells [3] (setting [6]) came out at 28 nM; in the data set with SUDHL5 cells [4] (setting [7]), 19 nM. For the same molecule, the figures for the half-maximal inhibitory concentration (IC50) in the data set with HMC-1-8 cells (setting [8]), in the data set on SUDHL5 cells [2] and with SUDHL5 cells [5] were 726 nM, 25 nM and 30 nM, respectively.
For the molecule `CCc1c2c(nn1C)C(CCN1CCOCC1)N(C)CCCCn1c(C(=O)O)c(CCCOc3cccc4cc(F)ccc34)c3ccc(Cl)c-2c31` (centres unmarked) [Example 97, 4-chloro-3-ethyl-7-{3-[(6-fluoronaphthalen-1-yl)oxy]propyl}-2,14-dimethyl-15-[2-(morpholin-4-yl)ethyl]-10,11,12,13,14,15-hexahydro-2H-pyrazolo[3′,4′:8,9][1,6]diazacycloundecino[10,11,1-hi]indole-8-carboxylic Acid—N-ethylethanamine Salt], the EC50 in the data set on SUDHL10 cells [3] (setting [6]) and with SUDHL5 cells [4] (setting [7]) was 11 nM in each case. The concentration for half-maximal inhibition (IC50) in the data set with HMC-1-8 cells (setting [8]) was 405 nM; in the data set with SUDHL5 cells [5] it was 12 nM; with AMO-1 cells (setting [9]), 16.3 nM.
On to `CCc1c2c(nn1C)C(CCN1CCN(C)CC1)OCCCCn1c(C(=O)O)c(CCCOc3cccc4cc(F)ccc34)c3ccc(Cl)c-2c31` (single isomer, unassigned; stereoisomer 3) [Example 72, (−)-4-chloro-3-ethyl-7-{3-[(6-fluoronaphthalen-1-yl)oxy]propyl}-2-methyl-15-[2-(4-methylpiperazin-1-yl)ethyl]-2,10,11,12,13,15-hexahydropyrazolo[4′,3′:9,10][1,6]oxazacycloundecino[8,7,6-hi]indole-8-carboxylic Acid—N-ethylethanamine Salt (Stereoisomer 3)], for which the EC50 worked out at 54 nM in the data set on SUDHL10 cells [3] (read-out: Caspase SUDHL10 EC50 (median); caspase-3/7 induction, 3 h) and 74 nM with SUDHL5 cells [4] (read-out: Caspase SUDHL5 EC50 (median); caspase-3/7 induction, 3 h). Also, the IC50 with HMC-1-8 cells (read-out: Antiproli HMC-1-8 IC50 median; 72 h, CellTiter-Glo) was 2290 nM; in the data set on SUDHL5 cells [2], 96 nM; with AMO-1 cells (read-out: Antiproli AMO-1 IC50 median; 72 h, CellTiter-Glo) it was 107 nM.
`CCc1c2c(nn1C)C(CCN1CCOCC1)OCCCCn1c(C(=O)O)c(CCCOc3cccc4cc(F)ccc34)c3ccc(Cl)c-2c31` (single isomer, unassigned; enantiomer 1) [Example 23, (+)-4-chloro-3-ethyl-7-{3-[(6-fluoronaphthalen-1-yl)oxy]propyl}-2-methyl-15-[2-(morpholin-4-yl)ethyl]-2,10,11,12,13,15-hexahydropyrazolo[4′,3′:9,10][1,6]oxazacycloundecino[8,7,6-hi]indole-8-carboxylic Acid—N-ethylethanamine (Enantiomer 1)]: the half-maximal inhibitory concentration (IC50) in the data set on SUDHL10 cells [1] came out at 9.7 nM; in the data set on SUDHL5 cells [2], 7.8 nM.
